Laboratory results from patent publication US20260224563A1, “CRYSTALLINE FORMS OF 6-(3-((5-CHLORO-2-METHOXYPYRIDINE)-3-SULFONAMIDO)-2,6-DIFLUOROPHENYL)-N-METHYLIMIDAZO[1,5-A]PYRAZINE-1-CARBOXAMIDE AND METHODS FOR USING THE SAME” (HIBERCELL, INC., priority 2023, published 2026).
Like-named read-outs stand apart in the source and are kept apart here.

Experiment: Pharmacokinetics of HC-7366 in male and female beagle dogs following IV and oral administration of HC-7366-K (plasma and urine, LC-MS/MS)
Format: in vivo, Beagle Dog
Design: AUC(0-t)/D: unit not given here
Conditions: for AUC(0-inf) / AUC(0-t) / FPO / AUC(0-t)/D / t1/2: mean n = 3; for AUC(0-t): t = 48 h; for FPO: based on AUC(0-inf); for Cmax: suspension of Form III; for bioavailability: read-out: Mean oral bioavailability (FPO); for half-life: read-out: terminal half-life (t1/2) (converted); for Emesis: at 1 hour post dose
Procedure: The objective of this study was to characterize the pharmacokinetics of HC-7366 in male and female beagle dogs following intravenous (IV) and oral (PO) administration of the potassium salt of the compound of formula (I), which may be referred to in this Example as HC-7366-K.
The IV solution formulation of HC-7366-K contained “5% (v/v) DMSO and 95% (v/v) Captisol (20% w/v) in PBS (pH 7.4)”, and was administered […] dose at 0.5 mg free acid/kg.
The PO suspension formulation of HC-7366-K is a suspension of Form III of the potassium salt of the compound of formula (I) (see Example 6) and contained “0.5% (w/v) methylcellulose (400 cp) in water”, and was administered orally at 1 mg free acid/kg, 10 mg free acid/kg, 50 mg free acid/kg, 150 mg free acid/kg, respectively.
After dosing, blood samples were collected at various time points. Plasma and urine was harvested and analysed by LC-MS/MS to characterize the PK profiles of HC-7366.
HC-7366-K was stored at room temperature. The compound used in this study was HC-7366-K. All doses, concentrations and supporting data are expressed in terms of free acid. The molecular weight conversion factor from HC-7366-K to free acid was 1.11.
HC-7366-K was formulated as an IV solution at a target dose level of 0.5 mg/mL in “5% (v/v) DMSO and 95% (v/v) Captisol (20% w/v) in PBS (pH 7.4)”.
HC-7366-K was formulated as a PO suspension of Form III of the potassium salt of the compound of formula (I) (see Example 6) at a target dose concentration of 0.25 mg/mL, 2.5 mg/mL, 12.5 mg/mL and 37.5 mg/mL in “0.5% (w/v) methylcellulose (aq.) (400 cp) in water” respectively.
The dose was administered via intravenous and oral gavage at the target dose volume of 1, and 4 mL/kg, respectively. All animals had free access to water, were fasted overnight prior to dosing and fed approximately 2 hours after dosing. The IV dose and PO dose at 1 mg/kg were administered to the same dogs as a cross-over design. The PO dose was administered 10 days after the IV dose. The PO doses at 10, 50 and 150 mg/kg were administered to individual animals.
Following IV administration, blood samples (ca 0.3 mL) were collected from the venepuncture of peripheral veins except the dosing vein. Blood samples were collected pre dose and at 0.083 h, […], 0.5 h, 1 h, 2 h, 4 h, 8 h, […], 30 h, and 48 h post dose.
Following PO administration, blood samples (ca 0.3 mL) were collected from the venepuncture of peripheral veins. Blood samples were collected pre dose and at 0.25 h, 0.5 h, 1 h, 2 h, 4 h, 8 h, 24 h, 30 h, and 48 h post dose.
Blood samples were collected into tubes containing K2EDTA as anticoagulant. The acceptable time ranges for blood collection are shown below. […]. Samples were stored in a freezer set to maintain a temperature at or below −80° C. prior to analysis. The residual blood cells were discarded.
Urine samples were collected on cold packs into clean bottles and the cold packs were checked during the day and at each sampling interval. At the end of the collection interval, the volume of urine was recorded and then each sample was well mixed and maintained on wet ice throughout processing and then stored frozen at […]75±15° C. until analysis.
The plasma and urine concentration of HC-7366 was determined by protein precipitation with acetonitrile followed by liquid chromatography with mass spectrometric detection (LC MS/MS). Sample preparation was conducted by adding 50 uL plasma or 50 uL urine to 200 uL of acetonitrile containing dexamethasone as an analytical internal standard. There was no formal validation data to support the assay.
Calibration standards were prepared in male, female beagle dog plasma or urine using HC-7366 Free acid. Calibration standards were freshly prepared on the day of analysis.
Parameters were estimated using Phoenix (WinNonlin) pharmacokinetic software version 6.1.0 using a non-compartmental approach consistent with IV and PO routes of administration. […]

[1] = Female Beagle dog, IV 0.5 mg/kg, plasma
[2] = Female Beagle dog, PO 1 mg/kg, plasma
[3] = Female Beagle dog, PO 10 mg/kg, plasma
[4] = Female Beagle dog, PO 50 mg/kg, plasma
[5] = Female Beagle dog, PO 150 mg/kg
[6] = Female Beagle dog, PO 150 mg/kg, plasma
[7] = dog, plasma, female beagle dogs, oral 1 mg/kg
[8] = dog, Male Beagle dogs, IV 0.5 mg/kg, HC-7366 in plasma
[9] = dog, Male Beagle dogs, PO 1 mg/kg, HC-7366 in plasma
[10] = dog, Male Beagle dogs, PO 10 mg/kg, HC-7366 in plasma
[11] = dog, Male Beagle dogs, PO 50 mg/kg, HC-7366 in plasma
[12] = dog, Male Beagle dogs, PO 150 mg/kg, HC-7366 in plasma
[13] = plasma, female beagle dog, oral 10 mg/kg
[14] = plasma, female beagle dog, oral 50 mg/kg
[15] = plasma, female beagle dog, oral 150 mg/kg
[16] = plasma, male beagle dog, oral 1 mg/kg
[17] = plasma, male beagle dog, oral 10 mg/kg
[18] = plasma, male beagle dog, oral 50 mg/kg
[19] = plasma, male beagle dog, oral 150 mg/kg

CNC(=O)c1ncn2cc(-c3c(F)ccc(NS(=O)(=O)c4cc(Cl)cnc4OC)c3F)ncc12 [HC-7366-K, 6-(3-((5-chloro-2-methoxypyridine)-3-sulfonamido)-2,6-difluorophenyl)-N-methylimidazo[1,5-a]pyrazine-1-carboxamide]
AUC(0-inf) [1]: 85.7 µg·h/mL
AUC(0-t) [1]: 81.1 µg·h/mL
FPO (Female Beagle dog, PO 1 mg/kg): 99%
AUC(0-t)/D (Female Beagle dog, PO 1 mg/kg): 156383
AUC(0-inf) [2]: 170 µg·h/mL
t1/2 [2]: 13 h
AUC(0-t) [2]: 156 µg·h/mL
FPO (Female Beagle dog, PO 10 mg/kg): 84%
AUC(0-t)/D (Female Beagle dog, PO 10 mg/kg): 126414
AUC(0-inf) [3]: 1440 µg·h/mL
t1/2 [3]: 14 h
Tmax (Female Beagle dog, PO 10 mg/kg, range n = 3): 0.50 to 1.0 h
AUC(0-t) [3]: 1260 µg·h/mL
FPO (Female Beagle dog, PO 50 mg/kg): 63%
AUC(0-t)/D (Female Beagle dog, PO 50 mg/kg): 97510
AUC(0-inf) [4]: 5370 µg·h/mL
t1/2 [4]: 14 h
AUC(0-t) [4]: 4880 µg·h/mL
FPO [5]: 32%
AUC(0-t)/D [5]: 49629
AUC(0-inf) [6]: 8260 µg·h/mL
t1/2 [6]: 14 h
AUC(0-t) [6]: 7440 µg·h/mL
AUC(0-t)/D (Male Beagle dogs, IV 0.5 mg/kg): 155094
FPO (Male Beagle dogs, PO 1 mg/kg): 73%
AUC(0-t)/D (Male Beagle dogs, PO 1 mg/kg): 116097
t1/2 (Male Beagle dogs, PO 10 mg/kg, HC-7366 in plasma): 15 h
FPO (Male Beagle dogs, PO 10 mg/kg): 83%
AUC(0-t)/D (Male Beagle dogs, PO 10 mg/kg): 126074
t1/2 (Male Beagle dogs, PO 50 mg/kg, HC-7366 in plasma): 17 h
FPO (Male Beagle dogs, PO 50 mg/kg): 58%
AUC(0-t)/D (Male Beagle dogs, PO 50 mg/kg): 85797
t1/2 (Male Beagle dogs, PO 150 mg/kg, HC-7366 in plasma): 11 h
FPO (Male Beagle dogs, PO 150 mg/kg): 21%
AUC(0-t)/D (Male Beagle dogs, PO 150 mg/kg): 34480
Tmax (Male Beagle dogs, PO 150 mg/kg, range n = 3): 1.0 to 4.0 h
Tmax (dog, plasma, Male Beagle dogs, PO 1 mg/kg, range n = 3, read-out: tmax): 0.25 to 0.5 h
Tmax (dog, plasma, Male Beagle dogs, PO 10 mg/kg, range n = 3, read-out: tmax): 0.5 h
Tmax (dog, plasma, Male Beagle dogs, PO 50 mg/kg, range n = 3, read-out: tmax): 0.5 to 1 h
clearance (dog, plasma, female Beagle dogs, intravenous 0.5 mg/kg, read-out: Clearance (CL)): 5.84 mL/h/kg
Vd (dog, plasma, female Beagle dogs, intravenous 0.5 mg/kg, read-out: volume of distribution at steady state (Vss)): 0.084 L/kg
Cmax [7]: 10.7 µg/mL
bioavailability [7]: 99%
half-life [7]: 13 h
AUC(0-inf) [8]: 85.6 µg·h/mL
AUC(0-t) [8]: 77.5 µg·h/mL
AUC(0-inf) [9]: 123 µg·h/mL
AUC(0-t) [9]: 116 µg·h/mL
AUC(0-inf) [10]: 1420 µg·h/mL
AUC(0-t) [10]: 1260 µg·h/mL
AUC(0-inf) [11]: 4930 µg·h/mL
AUC(0-t) [11]: 4290 µg·h/mL
AUC(0-inf) [12]: 5470 µg·h/mL
AUC(0-t) [12]: 5170 µg·h/mL
half-life (dog, female Beagle dogs, intravenous 0.5 mg/kg, plasma HC-7366, mean n=3): 12 h
half-life (dog, male beagle dogs, intravenous 0.5 mg/kg, plasma HC-7366, mean n=3): 14 h
Emesis (female beagle dog, oral 150 mg/kg): Emesis was observed
Emesis (male beagle dog, oral 150 mg/kg): Emesis was observed
gender differences in the PK parameters (male versus female beagle dogs): no notable gender differences
dose proportionality of AUC (AUC/D values) (oral, between 1 and 50 mg/kg, beagle dogs): generally increased in proportional to dose level
Tmax (plasma, Female Beagle dog, PO 1 mg/kg, range n = 3, read-out: tmax): 1 to 2 h
Tmax (plasma, Female Beagle dog, PO 50 mg/kg, range n = 3, read-out: tmax): 2 to 4 h
Tmax (plasma, Female Beagle dog, PO 150 mg/kg, range n = 3, read-out: tmax): 0.5 to 1 h
Cmax [13]: 87 µg/mL
Tmax (plasma, female beagle dog, oral 10 mg/kg, three animals, read-out: time post dose at which Cmax was observed (Tmax)): 0.5 to 1 h
bioavailability [13]: 84%
half-life [13]: 14 h
Cmax [14]: 246 µg/mL
bioavailability [14]: 63%
half-life [14]: 14 h
Cmax [15]: 350 µg/mL
bioavailability [15]: 32%
half-life [15]: 14 h
Cmax [16]: 10.2 µg/mL
bioavailability [16]: 73%
half-life [16]: 12 h
Cmax [17]: 94.3 µg/mL
bioavailability [17]: 83%
half-life [17]: 15 h
Cmax [18]: 227 µg/mL
bioavailability [18]: 58%
half-life [18]: 17 h
Cmax [19]: 280 µg/mL
Tmax (plasma, male beagle dog, oral 150 mg/kg, three animals, read-out: time post dose at which Cmax was observed (Tmax)): 1 to 4 h
bioavailability [19]: 21%
half-life [19]: 11 h
